Measured values as given in the NIST ThermoML archive (doi:10.1021/je800468h).
Where “and” joins values, the source holds several entries; their conditions need not be identical. Equal values may be shown once. Numbers after ± are expanded uncertainties.

Experiment: xn = mol fraction of the nth substance listed
Conditions: 298.15 K, 101 kPa, Liquid; for electrical conductivity: Alternating current cell with electrodes; for mass density: Vibrating tube method

CCCCn1cc[n+](C)c1.F[B-](F)(F)F [1-butyl-3-methylimidazolium tetrafluoroborate] + ClCCl
x1 = 1
Conditions | electrical conductivity [S/m] | mass density [kg/m3]
– | 0.353 ± 0.004 | 1202.19 ± 7.9

CCn1cc[n+](C)c1.F[B-](F)(F)F [1-ethyl-3-methylimidazolium tetrafluoroborate] + CC#N
Conditions | electrical conductivity [S/m] | mass density
x1 = 0.008411 | 1.58 ± 0.016 | 791.26 ± 0.15 kg/m3
x1 = 0.01082 | 1.9 ± 0.02 | 795.48 ± 0.15 kg/m3
x1 = 0.01528 | 2.46 ± 0.03 | 802.59 ± 0.15 kg/m3
x1 = 0.01646 | 2.55 ± 0.03 | 804.68 ± 0.15 kg/m3
x1 = 0.02252 | 3.13 ± 0.03 | 814.3 ± 0.15 kg/m3
x1 = 0.02253 | 3.14 ± 0.03 | 813.87 ± 0.15 kg/m3
x1 = 0.04929 | 4.89 ± 0.05 | 853.38 ± 0.15 kg/m3
x1 = 0.04942 | 4.94 ± 0.05 | 854.17 ± 0.16 kg/m3
x1 = 0.08059 | 6.03 ± 0.06 | 893.87 ± 0.16 kg/m3
x1 = 0.1007 | 6.5 ± 0.07 | 916.26 ± 0.19 kg/m3
x1 = 0.1218 | 6.72 ± 0.07 | 939.88 ± 0.18 kg/m3
x1 = 0.1433 | 6.94 ± 0.07 | 960.07 ± 0.23 kg/m3
x1 = 0.1736 | 6.92 ± 0.07 | 988.57 ± 0.2 kg/m3
x1 = 0.2043 | 6.91 ± 0.07 | 1012.5 ± 0.33 kg/m3
x1 = 0.2371 | 6.65 ± 0.07 | 1038.16 ± 0.22 kg/m3
x1 = 0.2778 | 6.41 ± 0.06 | 1063.36 ± 0.56 kg/m3
x1 = 0.3264 | 5.9 ± 0.06 | 1093.25 ± 0.27 kg/m3
x1 = 0.384 | 5.41 ± 0.05 | 1120.11 ± 1.1 kg/m3
x1 = 0.4565 | 4.64 ± 0.05 | 1153.25 ± 0.38 kg/m3
x1 = 0.4888 | 4.44 ± 0.04 | 1163.04 ± 1.8 kg/m3
x1 = 0.6478 | 3.2 ± 0.03 | 1211.72 ± 3.4 kg/m3
x1 = 0.652 | 3.1 ± 0.03 | 1215.55 ± 0.65 kg/m3
x1 = 0.759 | 2.54 ± 0.03 | 1237.95 ± 4.8 kg/m3
x1 = 0.8336 | 2.11 ± 0.02 | 1255.87 ± 1 kg/m3
x1 = 0.8902 | 1.95 ± 0.02 | 1263.01 ± 6.9 kg/m3
x1 = 1 | 1.55 ± 0.016 | 1283.7 ± 1.5 kg/m3 and 1280.38 ± 8.9 kg/m3

CCCCCCn1cc[n+](C)c1.F[B-](F)(F)F [1-hexyl-3-methylimidazolium tetrafluoroborate] + CC#N
Conditions | electrical conductivity [S/m] | mass density [kg/m3]
x1 = 0.004117 | 0.838 ± 0.008 | 784.24 ± 0.15
x1 = 0.008445 | 1.442 ± 0.014 | 791.63 ± 0.15
x1 = 0.01744 | 2.35 ± 0.02 | 806.26 ± 0.15
x1 = 0.03816 | 3.51 ± 0.04 | 836.42 ± 0.15
x1 = 0.06486 | 4.13 ± 0.04 | 869.76 ± 0.16
x1 = 0.09763 | 4.25 ± 0.04 | 903.86 ± 0.18
x1 = 0.1399 | 3.96 ± 0.04 | 939.67 ± 0.21
x1 = 0.1943 | 3.37 ± 0.03 | 975.94 ± 0.28
x1 = 0.2712 | 2.53 ± 0.03 | 1014.86 ± 0.47
x1 = 0.3907 | 1.543 ± 0.015 | 1056.74 ± 0.97
x1 = 0.5902 | 0.656 ± 0.007 | 1100.45 ± 2.3
x1 = 0.7435 | 0.344 ± 0.003 | 1122.12 ± 3.8
x1 = 0.8889 | 0.192 ± 0.002 | 1137.2 ± 5.5
x1 = 1 | 0.1228 ± 0.0012 | 1146.34 ± 7.1
